# Results taken from patent US9872917B2, “Anion-paired cationic metallocene-containing compounds and polymers as antimicrobial agents” (University of South Carolina, priority 2013, dated 2018).
# System: CA-MRSA cells
# Assay: Broth dilution method, growth followed at OD600
# Assay type: cell-based, Staphylococcus aureus
# Details: stock solutions 20 μg/ml penicillin G, 20 μg/ml polymer, 40 μg/ml loaded polymer; 37° C., OD600 every 2 hours
# Experimental: Broth dilution method was used to characterize the inhibition of penicillin G/polymer complex against CA-MRSA cells. Penicillin G, cationic cobaltocenium polymer or penicillin G/polymer complex was dissolved in water. Concentrations of the above solutions were at 20 μg/ml for penicillin G, 20 μg/ml for cationic polymer and 40 μg/ml penicillin G loaded polymer (20 μg/ml penicillin G and 20 μg/ml polymer). Solutions without polymers were prepared as the control samples. CA-MRSA cells were grown in tryptic soy broth (TSB) medium at 37° C. overnight. All bacteria were grown to an optical density of 1 (OD600=1). Then, the cells were diluted with TSB to give a bacterial assay stock with OD600=0.04. CA-MRSA cells ([…]) were added to each well in a 96 well assay plate.
compound,measurement,value
"CC1(C)S[C@@H]2[C@H](NC(=O)Cc3ccccc3)C(=O)N2[C@H]1C(=O)O [penicillin G, benzyl penicillin]",inhibition of CA-MRSA growth (OD600),some inhibition
